Measurements: paper PMC7246765, “Development of a Radiofluorinated Adenosine A2B Receptor Antagonist as Potential Ligand for PET Imaging” (International Journal of Molecular Sciences, 2020)
Where “and” joins values, the source holds several entries; their conditions need not be identical. Equal entries are not always repeated. Blank lines part the entries; values can stand above or below the compound they belong to.

What was measured:
[1] = target: T1, human adenosine A2B receptor (Homo sapiens, UniProt P29275); assay: Competitive radioligand binding with [3H]PSB-603, membranes of CHO or HEK cells; conditions: mean ± SEM of three independent assays
T1 construct: host or cells: CHO or HEK cells
T1 sequence (P29275 1-332): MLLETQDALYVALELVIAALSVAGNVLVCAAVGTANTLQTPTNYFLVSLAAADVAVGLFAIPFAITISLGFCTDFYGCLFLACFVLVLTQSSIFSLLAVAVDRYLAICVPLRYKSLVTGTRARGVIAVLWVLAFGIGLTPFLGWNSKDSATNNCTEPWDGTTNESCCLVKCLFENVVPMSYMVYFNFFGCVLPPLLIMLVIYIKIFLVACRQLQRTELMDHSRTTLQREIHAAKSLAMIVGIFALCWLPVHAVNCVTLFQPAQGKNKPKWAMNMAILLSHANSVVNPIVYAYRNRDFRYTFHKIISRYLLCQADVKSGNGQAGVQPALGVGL
Experimental: (§1) The binding affinities of 2 and 9 at the four human adenosine receptor subtypes A2B, A2A, A1, and A3, presented in Table 1, were determined in competitive binding assays using appropriate radioligands and membrane preparations of Chinese hamster ovary (CHO) cells or human embryonic kidney (HEK) cells, respectively, recombinantly expressing the corresponding human receptor subtype.
(§2) Membrane preparations of recombinant CHO or HEK (human embryonic kidney) cells expressing the respective human adenosine receptor subtype were obtained according to Borrman et al. or purchased from Perkin Elmer, Germany. Radioligand binding assays using human A1, A2A, A2B and A3 receptors were performed according to Alnouri et al..
[^3H]8-(4-[4-(4-chlorophenyl)piperazine-1-sulfonyl]phenyl)-1-propyl-2,3,6,7-tetrahydro-1H-purine-2,6-dione ([^3H]PSB-603, molar activity: 73Ci/mmol, 0.3 nM [26]) for the A2B receptor, and
(§3) [^3H](R)-8-ethyl-4-methyl-2-(phenyl)1,4,7,8-tetrahydro-5H-imidazo[2,1-i]purin-5-one ([^3H]PSB-11, molar activity: 53 Ci/mmol, 1 nM [30]) for the A3 receptor. Three separate experiments were performed to determine the Ki values. All data were analyzed with GraphPad Prism, Version 4.1 (GraphPad Inc., La Jolla, CA,USA).

[2] = target: T2, human adenosine A2A receptor (Homo sapiens, UniProt P29274); assay: Competitive radioligand binding with [3H]MSX-2, membranes of CHO or HEK cells
T2 construct: host or cells: CHO or HEK cells
T2 sequence (P29274 whole entry): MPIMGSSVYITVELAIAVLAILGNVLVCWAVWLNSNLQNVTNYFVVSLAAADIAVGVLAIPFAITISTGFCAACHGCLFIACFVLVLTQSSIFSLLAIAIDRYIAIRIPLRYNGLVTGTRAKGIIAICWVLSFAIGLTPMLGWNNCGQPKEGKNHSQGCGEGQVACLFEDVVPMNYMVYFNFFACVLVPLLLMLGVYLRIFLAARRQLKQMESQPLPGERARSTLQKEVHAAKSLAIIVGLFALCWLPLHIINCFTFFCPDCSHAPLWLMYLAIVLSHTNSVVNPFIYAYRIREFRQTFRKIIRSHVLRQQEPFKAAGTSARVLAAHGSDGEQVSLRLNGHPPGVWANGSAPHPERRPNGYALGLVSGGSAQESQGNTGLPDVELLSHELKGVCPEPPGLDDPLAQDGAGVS
Experimental: as §1, §2
[^3H]3-(3-hydroxypropyl)-7-methyl-8-(m-methoxystyryl)-1-propargylxanthine, ([^3H]MSX-2, molar activity: 84 Ci/mmol, 1 nM [29]) for the A2A receptor,
as §3

[3] = target: T3, human adenosine A1 receptor (Homo sapiens, UniProt P30542); assay: Competitive radioligand binding with [3H]CCPA, membranes of CHO or HEK cells
T3 construct: host or cells: CHO or HEK cells
T3 sequence (P30542 1-326): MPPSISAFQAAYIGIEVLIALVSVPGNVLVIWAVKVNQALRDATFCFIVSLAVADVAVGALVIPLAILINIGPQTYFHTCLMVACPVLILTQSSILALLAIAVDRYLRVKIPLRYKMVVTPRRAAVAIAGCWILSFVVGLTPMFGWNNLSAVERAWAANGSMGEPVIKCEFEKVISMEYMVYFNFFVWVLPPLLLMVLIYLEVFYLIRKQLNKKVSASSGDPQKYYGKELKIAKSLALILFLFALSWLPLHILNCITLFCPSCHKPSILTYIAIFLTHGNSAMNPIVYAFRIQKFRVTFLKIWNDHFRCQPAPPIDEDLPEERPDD
Experimental: as §1, §2
[^3H]2-Chloro-N^6cyclopentyladenosine ([^3H]CCPA, molar activity: 58 Ci/mmol, 1 nM [28]) for the A1 receptor,
as §3

[4] = target: T4, human adenosine A3 receptor (Homo sapiens, UniProt P0DMS8); assay: Competitive radioligand binding with [3H]PSB-11, membranes of CHO or HEK cells
T4 construct: host or cells: CHO or HEK cells
T4 sequence (P0DMS8 1-318): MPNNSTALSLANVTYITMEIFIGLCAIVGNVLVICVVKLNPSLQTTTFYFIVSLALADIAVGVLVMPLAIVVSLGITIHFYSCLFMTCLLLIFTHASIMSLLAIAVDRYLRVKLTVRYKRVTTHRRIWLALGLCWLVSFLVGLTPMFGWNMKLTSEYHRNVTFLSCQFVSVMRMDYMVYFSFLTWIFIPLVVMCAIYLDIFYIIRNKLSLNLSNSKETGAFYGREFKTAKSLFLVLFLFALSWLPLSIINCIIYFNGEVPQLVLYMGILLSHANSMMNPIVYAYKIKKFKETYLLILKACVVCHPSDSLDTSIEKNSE
Experimental: as §1, §2, §3

[5] = design: method as in PMID 30104122; conditions: mice, 30 min p.i.; cited from earlier work
[6] = Shake-flask lipophilicity, n-octanol/phosphate-buffered saline; type: physicochemical; conditions: n-octanol/PBS, n = 4
Source text: The partition coefficient of [^18F]9 was experimentally determined for the n-octanol/PBS system by the shake-flask method as described previously.

[7] = In vivo metabolism in mice, plasma and urine analysed by RP-HPLC and MLC; design: species or system CD-1 mice; conditions: 30 min p.i.
Experimental: The metabolism of [^18F]9 in vivo was investigated in CD-1 mice by taking blood and urine samples at 30 min post i.v. injection of the radiotracer (n = 2). Analysis of the respective samples was performed by micellar (MLC) and reversed-phase chromatography (RP-HPLC) as two complementary HPLC methods. MLC is also a reversed-phase HPLC mode, but it uses a mobile phase consisting of an aqueous solution with a surfactant above its critical micellar concentration. The formed micelles are able to dissolve the proteins and other components of a biological sample and therefore enable a direct injection of the plasma probe into the HPLC system without eliminating the tissue matrix. In contrast, for RP-HPLC analysis, aliquots of the plasma samples were treated with a mixture of ACN/water to precipitate the proteins, resulting in recoveries of activity of about 93%.
For metabolism studies (n = 2), [^18F]9 (30–40 MBq) was administered as a bolus in awake female CD-1 mice (10–12 weeks, 25–32 g) via the tail vein. At 30 min p.i., the animals were slightly anesthetized with isoflurane, and blood was sampled from retro-orbital plexus. Blood plasma was obtained as a supernatant after centrifugation of the whole blood samples (14,000 rpm, 1 min; Centrifuge 5418, Eppendorf Vertrieb Deutschland GmbH, Wesseling-Berzdorf, Germany). After cervical luxation of the animals, urine samples were obtained. All samples were weighed and the respective activity measured in a dose calibrator (ISOMED 2010; MED Nuklear-Medizintechnik Dresden GmbH, Dresden, Germany).
MLC: For preparation of the MLC samples, mouse plasma (20–50 µL) was dissolved in 200 µL of 200 mM aq. sodium dodecyl sulfate (SDS) and injected into the MLC system. The MLC system was built up as described previously. Separations were performed using a Reprosil-Pur C18-AQ column (250 × 4.6 mm + 10 mm pre-column, particle size: 10 µm) and an eluent mixture of EtOH/100 mM aq. SDS/25 mM (NH4)2HPO4 in gradient mode (0–10 min at 100% 100 mM aq. SDS, 10–15 min up to 10% EtOH, 15–20 min at 10% EtOH, 20–21 min up to 100% 100 mM aq. SDS; 21–30 min at 100% 100 mM aq. SDS) at a flow rate of 1.0 mL/min. The same HPLC apparatus was used as described in the radiochemistry part in generals.
RP-HPLC: Protein precipitation was performed by addition of an ice-cold mixture of ACN/water (9/1; v/v) in a ratio of 4:1 (v/v) of organic solvent to plasma. The sample workup was performed according to a procedure previously described in detail. The urine samples were diluted with water and directly injected. To analyze the samples, the same HPLC apparatus and method was used as described in the radiochemistry section.

[8] = Dynamic small-animal PET biodistribution, baseline and blocking with compound 2; type: in vivo, female CD-1 mice; conditions: for SUV 60 min p.i. lung / TAC peak SUV lung: single animals, n = 2
Source text: We then performed a pilot study to estimate very basic characteristics of the pharmacokinetics of the new radiotracer via dynamic small-animal PET imaging with [^18F]9 in female CD-1 mice. The time–activity curves (TACs) obtained in different tissues under both baseline (administration of vehicle, n = 2) and blocking (administration of compound 2, n = 2) conditions are presented in Figure 3; the whole-body maximum intensity projections are shown in Figure S3 in the Supplementary Material. The overall biodistribution of [^18F]9 under baseline conditions corresponded to the known quite ubiquitous but physiologically not very dense expression of A2B receptors. Although higher levels of the A2B receptor protein have been reported in the literature for certain cell types, such as alveolar epithelial cells and endothelial cells, the resemblance of the TACs in peripheral organs such as lungs under baseline and blocking conditions indicated no target-specific retention of [^18F]9 (TAC peak SUV lung: 3.09 and 2.88 vs. 2.30 and 1.57, resp.; SUV60 min p.i., lung: 0.44 and 0.25 vs. 0.32 and 0.20, resp.). […] This discrepancy between our and Petroni’s results might indicate differences in the biological effects exerted by agonistic (BAY60-6583) or antagonistic (compound 2) A2B receptor ligands, as well as model-related differences such as the expression of A2B receptors. The latter option could also explain the about 10-fold lower uptake of [^18F]9 in the brown adipose tissue (BAT) of female CD-1 mice in comparison to the uptake of [^11C]-4 in the BAT of male Wistar rats.
The biodistribution of the radiotracer was assessed in female CD-1 mice (30.6 ± 0.4 g bodyweight) using a dedicated small-animal PET-MRI scanner (nanoScan, Mediso, Hungary) over 60 min followed by a subsequent T1-weighted MR. The anaesthetized (2% isoflurane, carrier gas mixture of 40% air and 60% O2) female CD-1 mice were kept on a heated animal bed to maintain body temperature during imaging. Vehicle (10% DMSO in isotonic 0.9% NaCl solution) or compound 2 at 1 mg/kg bodyweight were co-injected with the tracer ([^18F]9: injected dose of 6.9 ± 0.1 MBq, equivalent to 10.4 ± 0.9 fmol/g bodyweight) intravenously 20 seconds after starting the dynamic PET acquisition, performed in normal mode and with a coincidence mode 1–5. For subsequent dynamic reconstructions (Nucline v2.01, Mediso, Hungary) by Ordered Subset Expectation Maximization (OSEM3D) with an attenuation correction with four iterations, six subsets, and a voxel size of 0.4 mm^3, list mode data were sorted into sinograms (12 × 10 s, 6 × 30 s, 5 × 60 s, and 10 × 300 s). PMOD software (v4.005, PMOD Technologies LLC, Zurich, Switzerland) was used for analysis of reconstructed studies and the results are expressed as standardized uptake value (SUV) given in mean ± SD.

[9] = blocking (compound 2, 1 mg/kg co-injected)

- Ki [1]: 2.51 ± 0.58 nM
- Ki ([2]; [3H]MSX-2, mean ± SEM of three independent assays): 107 ± 15 nM
- Selectivity Ratio Ki(Ax)/Ki(A2B): A2A/A2B ([2]; ratio of Ki values): 43
- Ki ([3]; [3H]CCPA, mean ± SEM of three independent assays): 149 ± 26 nM
- Selectivity Ratio Ki(Ax)/Ki(A2B): A1/A2B ([3]; ratio of Ki values): 59
- Ki ([4]; [3H]PSB-11, mean ± SEM of three independent assays): 286 ± 10 nM
- Selectivity Ratio Ki(Ax)/Ki(A2B): A3/A2B ([4]; ratio of Ki values): 114
SMILES: O=c1[nH]c(=O)c2cc(-c3ccnc(F)c3)c(-c3ccco3)nc2[nH]1 [Compound 9, 6-(2-Fluoropyridin-4-yl)-7-(furan-2-yl)pyrido[2,3-d]pyrimidine-2,4(1H,3H)-dione]

SMILES: O=C(Nc1cnc(-c2ccnc([18F])c2)c(-c2ccccc2F)n1)C1CC1 [[^18F]1]
- intact radiotracer in plasma [5]: 35%

- logD [6]: 1.4 ± 0.1
- activity concentration in urine (SUV) ([7]; CD-1 mice): 75
- intact radiotracer, fraction of total activity in plasma ([7]; CD-1 mice, i.v., n = 2): about 60%
- intact tracer in plasma, RP-HPLC, calculated considering the 93% recovery ([7]; mouse plasma): 60%
- intact radiotracer in plasma, MLC ([7]; mouse plasma, exemplary MLC chromatogram): 57%
- intact radiotracer in plasma, RP-HPLC ([7]; mouse plasma, exemplary RP-HPLC chromatogram): 64%
- SUV 60 min p.i. lung ([8]; baseline (vehicle)): 0.44 and 0.25
- TAC peak SUV lung ([8]; baseline (vehicle)): 3.09 and 2.88
- SUV brain after 60 min p.i. ([8]; baseline, mean (single values)): 0.11 (0.14 and 0.08)
- initial TAC peak SUV brain ([8]; baseline, mean (single values)): 0.19 (0.20 and 0.17)
- SUV 60 min p.i. lung [8, 9]: 0.32 and 0.20
- TAC peak SUV lung [8, 9]: 2.30 and 1.57
- TAC peak SUV brain ([8]; co-administration of compound 2, mean (single values)): 0.12 (0.11 and 0.13)
- fold lower uptake in brown adipose tissue (BAT) versus [11C]-4 in BAT of male Wistar rats ([8]; female CD-1 mice, comparison with ref 13): about 10 fold
SMILES: O=c1[nH]c(=O)c2cc(-c3ccnc([18F])c3)c(-c3ccco3)nc2[nH]1 [[^18F]9]
